These compounds were tested on isolated guinea pig heart auricles (assay: Substance effects on the contraction amplitude of isolated guinea pig heart auricles). Details: Cavia porcellus, active compound concentration 10^-4 g/l, read-out: Contractility (% control).
Source text: The cardiac and vascular effects were found on isolated perfused guinea pig hearts. To this end, the hearts of guinea pigs of 250 to 350 g weight are used. The animals are killed by a blow to the head, the thorax is opened, and a metal cannula is tied into the exposed aorta. The heart is separated out of the thorax with the lungs and connected to the perfusion apparatus via an aortic cannula with continuous perfusion. The lungs are separated at the roots of the lung. The perfusion medium used is a Krebs-Henseleit solution (1) (118.5 mmol/l of NaCl, 4.75 mmol/l of KCl, 1.19 mmol/1 of KH2 PO4, 1.19 mmol/l of MgSO4, 25 mmol/l of NaHCO3, 0.013 mmol/l of Na2 EDTA), the CaCl2 content of which is 1.2 mmol/l. 10 mmol/l of glucose are added as an energy-producing substrate. The solution is filtered free from particles before perfusion. The solution is aerated with carbogen (95% O2, 5% CO2) to maintain the pH 7.4. The hearts are perfused with a constant flow (10 ml/min) at 32° C. by means of a peristaltic pump.
For the measurement of cardiac function, a liquid-filled latex balloon which is connected to a pressure transducer via a liquid column is inserted into the left ventricle through the left auricle, and the isovolumetric contractions are recorded on a rapid recorder (Opie, L., J. Physiol., 180 (1965), 529-541). The perfusion pressure is recorded by means of a pressure transducer which is connected to the perfusion system upstream of the heart. Under these conditions, a reduction in the perfusion pressure indicates a coronary dilation, and an increase or decrease in the left-ventricular contraction amplitude indicates […] in the heart contractility. The compounds according to the invention are perfused into the perfusion system in suitable dilutions Just upstream of the isolated heart.
Substance effects on the contraction amplitude of isolated guinea pig heart auricles at an active compound concentration of 10^-4 g/l.

In order of rising activation at 0.1 µg/mL:
1. CC1=C(C=O)C(c2cccc3ncc(-c4ccccc4)cc23)C(C(=O)OC(C)C)=C(C)N1 (stereo not drawn) [Example 3]  31%
2. CCOC(=O)C1=C(C)NC(C)=C(C=O)C1c1cccc2ncc(-c3ccccc3)cc12 (stereo not drawn) [Example 1, Ethyl 1,4-dihydro-2,6-dimethyl-3-formyl-4-(3-phenylquinolin-5-yl)-pyridine-5-carboxylate]  32%
3. COC(=O)C1=C(C)NC(C)=C(C=O)C1c1cccc2ncc(-c3ccccc3)cc12 (stereo not drawn) [Example 4]  41%
